Assay results taken from patent US20200264182A1, “METHOD FOR DETECTING PROSTATE CANCER” (J-OIL MILLS, INC., priority 2017, published 2020).
Where no end group is shown, it is not given here.

System: serum fucosylated PSA
Test: Sandwich ELISA, anti-PSA antibody and biotin-labeled lectin
Format: binding, human
Settings: for Δ (=A − B): reaction value of Prostate cancer 4 minus Healthy 1; for lectin reaction value B of Healthy 1: serum of Healthy 1; for lectin reaction value A of Prostate cancer 4: serum of Prostate cancer 4, GS 6 (3 + 3)
Procedure, shortened: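 De-glycosylated anti-PSA antibody (5 μg/mL) captured PSA from 2-fold diluted serum, detected with biotin-PhoSL (0.1 μg/mL, 4° C, 30 min) in 0.1% BSA/diluted PBS+glycine-NaOH pH 9.6 or PBS pH 7.4, then HRP-streptavidin/TMB at Ab450-630. Values in U/mL from fucosylated PSA calibration, 10 ng/mL defined as 10 U/mL; AAL substituted for comparison.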

[1] = subject samples A, 7 healthy persons, pH 9.6
[2] = subject samples A, 9 patients, pH 9.6
[3] = subject samples B, n 9, high blood PSA but no cancer in biopsy, pH 9.6
[4] = subject samples B, n 11, pH 9.6

Substance: PhoSL: fucose α1→6 specific lectin that can be extracted from Pholiota squarrosa, SEQ ID No. 1 (APVPVTKLVCDGDTYKCTAYLDFGDGRWVAQWDTNVFHTG; not fully specified; ends and bridges not checked)
- Δ (=A − B) (pH in lectin reaction 7.4): 72.6 U/mL
- Δ (=A − B) (pH in lectin reaction 9.6): 126.9 U/mL
- lectin reaction value B of Healthy 1 (pH in lectin reaction 7.4): 35.8 U/mL
- lectin reaction value B of Healthy 1 (pH in lectin reaction 9.6): 51.9 U/mL
- lectin reaction value of Healthy 2 (serum of Healthy 2, pH in lectin reaction 9.6): 55.9 U/mL
- lectin reaction value of Healthy 3 (serum of Healthy 3, pH in lectin reaction 9.6): 63.9 U/mL
- lectin reaction value of Healthy 4 (serum of Healthy 4, pH in lectin reaction 9.6): 74.9 U/mL
- lectin reaction value of Healthy 5 (serum of Healthy 5, pH in lectin reaction 9.6): 55.8 U/mL
- lectin reaction value of Healthy 6 (serum of Healthy 6, pH in lectin reaction 9.6): 39.7 U/mL
- lectin reaction value of Healthy 7 (serum of Healthy 7, pH in lectin reaction 9.6): 59.0 U/mL
- lectin reaction value of Prostate cancer 1 (serum of Prostate cancer 1, GS 4 (2 + 2), pH in lectin reaction 9.6): 115.8 U/mL
- lectin reaction value of Prostate cancer 2 (serum of Prostate cancer 2, GS 5 (2 + 3), pH in lectin reaction 9.6): 116.7 U/mL
- lectin reaction value of Prostate cancer 3 (serum of Prostate cancer 3, GS 6 (3 + 3), pH in lectin reaction 9.6): 104.5 U/mL
- lectin reaction value A of Prostate cancer 4 (pH in lectin reaction 7.4): 108.4 U/mL
- lectin reaction value A of Prostate cancer 4 (pH in lectin reaction 9.6): 178.8 U/mL
- lectin reaction value of Prostate cancer 5 (serum of Prostate cancer 5, GS 7 (3 + 4), pH in lectin reaction 9.6): 115.8 U/mL
- lectin reaction value of Prostate cancer 6 (serum of Prostate cancer 6, GS 7 (3 + 4), pH in lectin reaction 9.6): 167.5 U/mL
- lectin reaction value of Prostate cancer 7 (serum of Prostate cancer 7, GS 8 (3 + 5), pH in lectin reaction 9.6): 125.6 U/mL
- lectin reaction value of Prostate cancer 8 (serum of Prostate cancer 8, GS 8 (4 + 4), pH in lectin reaction 9.6): 129.8 U/mL
- lectin reaction value of Prostate cancer 9 (serum of Prostate cancer 9, GS 8 (4 + 4), pH in lectin reaction 9.6): 251.4 U/mL
- reaction value, Healthy person group, Average value [1]: 57.3 U/mL
- reaction value, Healthy person group, Median value [1]: 55.9 U/mL
- reaction value, Prostate cancer patient group, Average value [2]: 145.1 U/mL
- reaction value, Prostate cancer patient group, Median value [2]: 125.6 U/mL
- reaction value, GS6, Mean value (subject samples A, n 2, pH 9.6): 141.7 U/mL
- reaction value, GS6, Median value (subject samples A, n 2, pH 9.6): 141.7 U/mL
- reaction value, GS7, Mean value (subject samples A, n 2, pH 9.6): 141.7 U/mL
- reaction value, GS7, Median value (subject samples A, n 2, pH 9.6): 141.7 U/mL
- reaction value, Negative (GS5 or less), Mean value (subject samples A, n 2, pH 9.6): 116.3 U/mL
- reaction value, Negative (GS5 or less), Median value (subject samples A, n 2, pH 9.6): 116.3 U/mL
- reaction value, GS8 or more, Mean value (subject samples A, n 3, pH 9.6): 129.8 U/mL
- reaction value, GS8 or more, Median value (subject samples A, n 3, pH 9.6): 168.9 U/mL
- reaction value, GS8-9, Mean value (subject samples B, n 6, pH 9.6): 232.9 U/mL
- reaction value, GS8-9, Median value (subject samples B, n 6, pH 9.6): 239.8 U/mL
- reaction value, Negative, Mean value [3]: 203.8 U/mL
- reaction value, Negative, Median value [3]: 178.0 U/mL
- reaction value, GS6, Mean value (subject samples B, n 9, pH 9.6): 181.7 U/mL
- reaction value, GS6, Median value (subject samples B, n 9, pH 9.6): 188.9 U/mL
- reaction value, GS7, Mean value [4]: 119.5 U/mL
- reaction value, GS7, Median value [4]: 210.6 U/mL
